This test concerns the target T1, BRD9-GFP (Homo sapiens, UniProt Q9H8M2).
T1 construct: CHYSEL (2A cis-acting hydrolase element) remnant after GFP; mCherry is split off as a separate protein (C); expressed in transfected cells; host or cells: HEK293A cells (Invitrogen R70507), lentiviral transduction with pLenti6-BRD9-GFP-CHYSEL-mCherry, blasticidin selection
T1 sequence (Q9H8M2 1-597): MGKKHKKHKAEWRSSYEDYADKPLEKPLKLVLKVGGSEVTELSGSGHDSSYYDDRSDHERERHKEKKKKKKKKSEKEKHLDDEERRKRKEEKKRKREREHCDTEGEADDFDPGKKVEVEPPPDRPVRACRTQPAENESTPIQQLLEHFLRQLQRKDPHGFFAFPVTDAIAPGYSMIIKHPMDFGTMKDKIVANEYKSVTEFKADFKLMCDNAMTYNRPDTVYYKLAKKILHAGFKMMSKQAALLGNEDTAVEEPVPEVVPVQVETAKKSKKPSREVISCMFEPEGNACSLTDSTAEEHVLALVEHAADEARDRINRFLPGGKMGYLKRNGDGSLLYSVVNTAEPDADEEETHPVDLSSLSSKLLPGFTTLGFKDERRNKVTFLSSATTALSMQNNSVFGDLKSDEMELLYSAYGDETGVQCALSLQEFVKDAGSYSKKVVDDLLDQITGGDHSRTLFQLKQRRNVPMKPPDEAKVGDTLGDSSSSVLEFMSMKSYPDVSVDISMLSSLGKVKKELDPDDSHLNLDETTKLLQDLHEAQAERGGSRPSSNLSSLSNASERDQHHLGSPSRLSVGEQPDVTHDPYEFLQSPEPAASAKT
Nature of the test: BRD9-GFP protein abundance flow cytometry assay in HEK293A cells. The note with it: HEK293A-BRD9-GFP-CHYSEL-mCherry cells; for BRD9 Deg Amax %: 24 h, % protein remaining at the concentration at which maximum degradation is seen; for DC50: 24 h at 37° C., 10-point 1:3 dilution, concentration at which 50% maximal degradation was observed. The class given is cell-based. As for the experimental part:
Compounds of the invention were tested in the following cellular assays. The terms in Table 1 are defined as follows: DC50 refers to the concentration at which 50% maximal degradation was observed; deg Amax is the extent of degradation and the value refers to the % protein remaining at the concentration at which maximum degradation is seen.
BRD9-GFP protein abundance flow cytometry assay in HEK293A cells: Degradation of BRD9 was measured in HEK293A cells expressing BRD9-GFP and mCherry from a stably integrated second generation bicistronic BRD9-GFP-CHYSELmCherry construct. Reduction of the GFP signal measured by flow cytometry served as readout for BRD9 degradation after degrader treatment.
The bicistronic BRD9-GFP-CHYSEL-mCherry construct is based on a pLenti6-DEST vector backbone where a GFP-CHYSEL-mCherry cassette was synthesized and inserted downstream of the DEST cassette by Gibson assembly resulting in the new gateway compatible vector pLenti6-DEST-GFP-CHYSEL-mCherry to allow Gateway cloning with pENTR221-BRD9 (w/o ATG) to obtain the final sensor construct pLenti6-BRD9-GFP-CHYSEL-mCherry.
HEK293 Å-BRD9-GFP-CHYSEL-mCherry sensor cells were generated by lentiviral vector transduction using the pLenti6-BRD9-GFP-CHYSEL-mCherry sensor construct described before. […] The mix was incubated for another 20 min at RT and then added to 1 ml of a freshly prepared suspension of HEK293FT cells in a well of a 6-well plate (concentration 1.2×10^6 cells/ml). 1 day after transfection, the medium was replaced with 1.5 ml of complete growth medium (DMEM high Glucose+10% FCS+1% L-Glutamine+1% NEAA+1% NaPyr.). 48 h post transfection supernatant containing viral transducing particles was collected and frozen at −80° C. […] Infection was performed with […] of collected supernatant containing viral transducing particles in 1 ml medium including 8 μg/ml polybrene. 24 h post infection, stably transfected cells were selected with blasticidin at a concentration of 8 μg/ml.
Stable HEK293 Å-BRD9-GFP-CHYSEL-mCherry cells were maintained in complete growth medium (DMEM high Glucose+10% FCS+1% L-Glutamine+1% NEAA+1% NaPyr.) with passaging performed twice per week. On Day 0, HEK293 Å-BRD9-GFP-CHYSEL-mCherry cells were seeded at 10,000 cells/well in a 96-well microtiter plate in […] complete medium. On Day 1, cells were treated in duplicate with 10-point 1:3 dilution series of compound using the HP D300 Digital Dispenser (Tecan). DMSO concentrations were normalized across the plate to 0.1%. On Day 2, after 24 h of incubation at 37° C., treatment media was discarded, cells rinsed with 100 ul/well PBS and then detached using 40 ul trypsin/well for 5 min. Trypsin was neutralized with 100 ul/well PBS+20% FCS). Flow cytometry was performed on the samples using the Beckman Coulter CytoFLEX flow cytometer. Cell identification was then performed using forward (FSC) vs. side scatter (SSC) plots. Single cell discrimination is performed using FSC-Width (FSC-W) vs. FSC-Height (FSC-H) plots. Median GFP/mCherry ratio values for 5,000 single cells are used to determine BRD9 levels. Median GFP/mCherry ratio values from HEK293 Å-mCherry are used as a background signal and thus defining 0% BRD9 signal. Median GFP/mCherry ratio values from DMSO treated HEK293 Å-BRD9-GFP-CHYSEL-mCherry are used to define 100% BRD9 signal for subsequent DC50 curves (concentration at 50% BRD9 degradation). Concentration response curves plotting relative reduction of the GFP/mCherry ratio signal (measured by flow cytometry) versus 10 compound concentrations (starting concentration […], 3 fold dilution steps) of the compounds allowed generation of DC50 values. Data is shown in Tables 2 and 3, in which, DC50 refers to the concentration at which 50% maximal degradation was observed; deg Amax is the extent of degradation and the value refers to the % protein remaining at the concentration at which maximum degradation is seen.

Data on eleven molecules can be found in patent US20220315578A1, “BRD9 BIFUNCTIONAL DEGRADERS AND THEIR METHODS OF USE” (NOVARTIS AG, priority 2019, published 2022).

For `CCCCn1cc(-c2cc(OC)c(OCC3CCN(CC4CCN(C(=O)c5ccc(Cl)c(N6CCC(=O)NC6=O)c5)CC4)CC3)c(OC)c2)c2ccncc2c1=O` [Compound B8, 1-(5-(4-((4-((4-(2-butyl-1-oxo-1,2-dihydro-2,7-naphthyridin-4-yl)-2,6-dimethoxyphenoxy)methyl)piperidin-1-yl)methyl)piperidine-1-carbonyl)-2-chlorophenyl)dihydropyrimidine-2,4(1H,3H)-dione], the “BRD9 Deg Amax %” value came out at 17.89% and the DC50 was found to be 3 nM.
Take `CCCn1cc(-c2cc(OC)c(CCN3CC[C@@H](OC4CCN(C(=O)c5ccc(Cl)c(N6CCC(=O)NC6=O)c5)CC4)[C@H](F)C3)c(OC)c2)c(C)c(C)c1=O` [Compound E55, 1-(2-chloro-5-(4-(((3R,4R)-1-(4-(4,5-dimethyl-6-oxo-1-propyl-1,6-dihydropyridin-3-yl)-2,6-dimethoxyphenethyl)-3-fluoropiperidin-4-yl)oxy)piperidine-1-carbonyl)phenyl)dihydropyrimidine-2,4(1H,3H)-dione]: the “BRD9 Deg Amax %” value is listed as 18.12% and the DC50 was determined as 5 nM.
`CCCCn1cc(-c2ccc(O[C@H]3CCN(CC4CCN(C(=O)c5ccc(OC)c(N6CCC(=O)NC6=O)c5)CC4)C[C@@H]3F)c(OC)c2)c2ccncc2c1=O` [Compound E32, 1-(5-(4-(((3S,4S)-4-(4-(2-Butyl-1-oxo-1,2-dihydro-2,7-naphthyridin-4-yl)-2-methoxyphenoxy)-3-fluoropiperidin-1-yl)methyl)piperidine-1-carbonyl)-2-methoxyphenyl)dihydropyrimidine-2,4(1H,3H)-dione]: the “BRD9 Deg Amax %” value was 17.58% and the DC50 came to 1 nM.
With `CCCCn1cc(-c2ccc(O[C@@H]3CCN(CC4CCN(C(=O)c5ccc(OC)c(N6CCC(=O)NC6=O)c5)CC4)C[C@H]3F)c(F)c2)c2ccncc2c1=O` [Compound E29, 1-(5-(4-(((3R,4R)-4-(4-(2-butyl-1-oxo-1,2-dihydro-2,7-naphthyridin-4-yl)-2-fluorophenoxy)-3-fluoropiperidin-1-yl)methyl)piperidine-1-carbonyl)-2-methoxyphenyl)dihydropyrimidine-2,4(1H,3H)-dione], the “BRD9 Deg Amax %” value came out at 19.48% and the DC50 came out at 1 nM.
Turning to `COc1ccc(C(=O)N2CCC(OC3CCN(CCc4c(OC)cc(-c5cn(C)c(=O)c6cnccc56)cc4OC)CC3)CC2)cc1N1CCC(=O)NC1=O` [Compound A32, 1-(5-(4-((1-(2,6-Dimethoxy-4-(2-methyl-1-oxo-1,2-dihydro-2,7-naphthyridin-4-yl)phenethyl)piperidin-4-yl)oxy)piperidine-1-carbonyl)-2-methoxyphenyl)dihydropyrimidine-2,4(1H,3H)-dione], the “BRD9 Deg Amax %” value was found to be 16.20% and the DC50 amounted to 6 nM.
As for `CCCCn1cc(-c2ccc(OC3CCN(CC4CCN(C(=O)c5ccc(OC)c(N6CCC(=O)NC6=O)c5)CC4)CC3)c(F)c2)c2ccncc2c1=O` [Compound E34, 1-(5-(4-((4-(4-(2-butyl-1-oxo-1,2-dihydro-2,7-naphthyridin-4-yl)-2-fluorophenoxy)piperidin-1-yl)methyl)piperidine-1-carbonyl)-2-methoxyphenyl)dihydropyrimidine-2,4(1H,3H)-dione], the “BRD9 Deg Amax %” value is reported as 13.08% and the half-maximal degradation concentration (DC50) was determined as 2 nM.
As for `COc1cc(-c2cn(C)c(=O)c(C)c2C)cc(OC)c1CCN1CCC(OC2CCN(C(=O)c3ccc(Cl)c(N4CCC(=O)NC4=O)c3)CC2)CC1` [Compound A21, 1-(2-Chloro-5-(4-((1-(2,6-dimethoxy-4-(1,4,5-trimethyl-6-oxo-1,6-dihydropyridin-3-yl)phenethyl)piperidin-4-yl)oxy)piperidine-1-carbonyl)phenyl)dihydropyrimidine-2,4(1H,3H)-dione], the “BRD9 Deg Amax %” value is on record as 12.12% and it took 1 nM to reach half-maximal degradation (DC50).
The like results for `CCCn1cc(-c2cc(OC)c(CCN3CCC(OC4CCN(C(=O)c5ccc(Cl)c(N6CCC(=O)NC6=O)c5)CC4)CC3)c(OC)c2)cc(C)c1=O` [Compound B1, 1-(2-Chloro-5-(4-((1-(2,6-dimethoxy-4-(5-methyl-6-oxo-1-propyl-1,6-dihydropyridin-3-yl)phenethyl)piperidin-4-yl)oxy)piperidine-1-carbonyl)phenyl)dihydropyrimidine-2,4(1H,3H)-dione] were, in that order, 11.90% and 2 nM.
On to `COc1cc(-c2cn(C)c(=O)c3cnccc23)ccc1OCC1CCN(CC2CCN(C(=O)c3ccc(OC)c(N4CCC(=O)NC4=O)c3)CC2)CC1` [Compound A5, 1-(2-Methoxy-5-(4-((4-((2-methoxy-4-(2-methyl-1-oxo-1,2-dihydro-2,7-naphthyridin-4-yl)phenoxy)methyl)piperidin-1-yl)methyl)piperidine-1-carbonyl)phenyl)dihydropyrimidine-2,4(1H,3H)-dione], for which the “BRD9 Deg Amax %” value worked out at 18.64% and the DC50 came to 19 nM.
Regarding `COc1cc(-c2cn(C)c(=O)c3cnccc23)cc(OC)c1OC1CCN(CC2CCN(C(=O)c3ccc(Cl)c(N4CCC(=O)NC4=O)c3)CC2)CC1` [Compound A9, 1-(2-Chloro-5-(4-((4-(2,6-dimethoxy-4-(2-methyl-1-oxo-1,2-dihydro-2,7-naphthyridin-4-yl)phenoxy)piperidin-1-yl)methyl)piperidine-1-carbonyl)phenyl)dihydropyrimidine-2,4(1H,3H)-dione], the “BRD9 Deg Amax %” value was determined as 20.62% and the DC50 was 2 nM.
In the case of `COc1ccc(C(=O)N2CCC(OCCN3CCN(Cc4c(OC)cc(-c5cn(C)c(=O)c6cnccc56)cc4OC)CC3)CC2)cc1N1CCC(=O)NC1=O` [Compound A34, 1-(5-(4-(2-(4-(2,6-Dimethoxy-4-(2-methyl-1-oxo-1,2-dihydro-2,7-naphthyridin-4-yl)benzyl)piperazin-1-yl)ethoxy)piperidine-1-carbonyl)-2-methoxyphenyl)dihydropyrimidine-2,4(1H,3H)-dione], the “BRD9 Deg Amax %” value was found to be 13.80% and the 50% degradation concentration (DC50) was determined as 37 nM.
